We go through 30 compounds from ChEMBL document CHEMBL1143568, “A new class of selective myocardial calcium channel modulators. 2. Role of the acetal chain in oxadiazol-3-one derivatives” (J Med Chem, 2005).

A word on the EC50: it is the concentration needed to bring the measured effect to its halfway point. Read a high EC50 as weaker potency.

Test [1] is filed under the species Cavia porcellus. In words: Negative inotropic potency as decrease in the developed tension in isolated guinea pig left artium.
Test [2] is filed under the species Cavia porcellus. Put plainly: Negative inotropic activity as decrease in the developed tension in isolated guinea pig left artium at 5x10E-5 M (n=4-6).
Test [3] is filed under the species Cavia porcellus. Put plainly: Vasorelaxant activity determined by percentage inhibition of calcium-induced contraction on K+ depolarized guinea pig aortic strip at 5x10E-5 M.
Test [4] is filed under the species Cavia porcellus. In words: Negative chronotropic activity was determined as percent decrease in the artial rate in spontaneously beating guinea pig artium at 5x10E-5 M (n=6-8).
For test [5], the species on record is Cavia porcellus. Put plainly: Negative chronotropic activity was determined as percent decrease in the artial rate in spontaneously beating guinea pig artium at 10E-5 M (n=6-8).
The species entered for test [6] is Cavia porcellus. In words: Negative inotropic activity as decrease in the developed tension in isolated guinea pig left artium at 10E-5 M (n=4-6).

For the compound `CCCCOC1(c2ccc(Cl)cc2)SC=C(C)n2c1noc2=O` (stereo unspecified), a half-maximal effect in the test listed under Cavia porcellus [1] (EC50) was put at 1850 nM. The Decrease in the test filed under Cavia porcellus [2] came out at 62%; in the test filed under Cavia porcellus [3] it was 9%; in the test listed under Cavia porcellus [4], 9%.
In turn, `CC/C=C\COC1(c2ccc(Cl)cc2)SC=C(C)n2c1noc2=O` (stereo unspecified) had a concentration for a half-maximal effect (EC50) in the test listed under Cavia porcellus [1] of 1310 nM. Also, the Decrease came out at 67% in the test filed under Cavia porcellus [2], 10% in the test listed under Cavia porcellus [3] and 5% in the test filed under Cavia porcellus [4].
`CCCCCCCCCOC1(c2ccc(Cl)cc2)SC=C(C)n2c1noc2=O` (stereo unspecified) had a concentration for a half-maximal effect (EC50) in the test listed under Cavia porcellus [1] of 790 nM. Moreover, the Decrease turned out to be 73% in the test listed under Cavia porcellus [2], 4% in the test listed under Cavia porcellus [3] and 11% in the test filed under Cavia porcellus [4].
`CCCCCCCCCCCCCCCCCCOC1(c2ccc(Cl)cc2)SC=C(C)n2c1noc2=O` (stereo unspecified): the Decrease in the test filed under Cavia porcellus [2] worked out at 39%; in the test filed under Cavia porcellus [3], 2%; in the test listed under Cavia porcellus [5] it was 15%.
In the test listed under Cavia porcellus [1], `CC1=CS[C@@](O)(c2ccc(Br)cc2)c2noc(=O)n21` showed a half-maximal effective concentration (EC50) of 320 nM. The results for the Decrease in the test filed under Cavia porcellus [2], in the test filed under Cavia porcellus [3] and in the test listed under Cavia porcellus [4] were 97%, 12% and 18%, respectively.
For the compound `CCCCCCCCCCCCCCCOC1(c2ccc(Cl)cc2)SC=C(C)n2c1noc2=O` (stereo unspecified), a half-maximal response in the test listed under Cavia porcellus [1] (EC50) required 1130 nM. Moreover, the values for the Decrease in the test filed under Cavia porcellus [2], in the test listed under Cavia porcellus [3] and in the test filed under Cavia porcellus [4] were 69%, 3% and 9%, respectively.
`C=CCOC1(c2ccc(Cl)cc2)SC=C(C)n2c1noc2=O` (stereo unspecified) returned a concentration for a half-maximal effect (EC50) in the test listed under Cavia porcellus [1] of 370 nM. In addition, the Decrease in the test filed under Cavia porcellus [2] is listed as 84%; in the test filed under Cavia porcellus [3], 21%; in the test filed under Cavia porcellus [4], 13%.
For the compound `CC1=CSC(OCC(C)C)(c2ccc(Br)cc2)c2noc(=O)n21` (stereo unspecified), in the test filed under Cavia porcellus [1], the half-maximal effective concentration (EC50) is 310 nM. The Decrease turned out to be 79% in the test listed under Cavia porcellus [6], 6% in the test listed under Cavia porcellus [3] and 11% in the test listed under Cavia porcellus [4].
The compound `CCCCOC1(c2ccc(Br)cc2)SC=C(C)n2c1noc2=O` (stereo unspecified) gave an EC50 in the test listed under Cavia porcellus [1] of 1020 nM. The Decrease was found to be 82% in the test listed under Cavia porcellus [2], 2% in the test listed under Cavia porcellus [3] and 18% in the test listed under Cavia porcellus [4].
`CCCOC1(c2ccc(Cl)cc2)SC=C(C)n2c1noc2=O` (stereo unspecified) registered a half-maximal effective concentration (EC50) in the test filed under Cavia porcellus [1] of 890 nM. Besides, the values for the Decrease in the test filed under Cavia porcellus [2], in the test filed under Cavia porcellus [3] and in the test listed under Cavia porcellus [4] were 73%, 20% and 7%, respectively.
On to `CC1=CSC(OCc2ccccc2)(c2ccc(Br)cc2)c2noc(=O)n21` (stereo unspecified), for which the EC50 in the test filed under Cavia porcellus [1] turned out to be 590 nM. In addition, the Decrease in the test filed under Cavia porcellus [2] came out at 63%; in the test filed under Cavia porcellus [3], 2%; in the test filed under Cavia porcellus [4], 4%.
Taken in the same sequence, the figures for `CC/C=C\COC1(c2ccc(Br)cc2)SC=C(C)n2c1noc2=O` (stereo unspecified) were 630 nM, 81%, 11% and 20%.
For the compound `CCCCCCOC1(c2ccc(Br)cc2)SC=C(C)n2c1noc2=O` (stereo unspecified), in the test listed under Cavia porcellus [1], the EC50 worked out at 830 nM. For the same compound, the Decrease in the test listed under Cavia porcellus [2] was 81%; in the test filed under Cavia porcellus [3], 2%; in the test filed under Cavia porcellus [4], 9%.
Turning to `CCCCCCCCCCCCCCCCCCO[C@@]1(c2ccc(Br)cc2)SC=C(C)n2c1noc2=O`, the response in the test listed under Cavia porcellus [1] was half-maximal at 970 nM (EC50). Besides, the Decrease in the test listed under Cavia porcellus [2] came to 66%; in the test listed under Cavia porcellus [3], 6%; in the test filed under Cavia porcellus [4], 5%.
Compound `CC1=CSC(OCC(C)C)(c2ccc(Cl)cc2)c2noc(=O)n21` (stereo unspecified) gave an EC50 in the test listed under Cavia porcellus [1] of 560 nM. In addition, the Decrease in the test filed under Cavia porcellus [2] stood at 83%; in the test listed under Cavia porcellus [3], 37%; in the test filed under Cavia porcellus [4], 15%.
For the compound `CC/C=C/COC1(c2ccc(Br)cc2)SC=C(C)n2c1noc2=O` (stereo unspecified), the Decrease in the test filed under Cavia porcellus [2] is recorded as 43%; in the test listed under Cavia porcellus [3] it was 11%; in the test filed under Cavia porcellus [4], 10%.
In turn, `COC1(c2ccc(Cl)cc2)SC=C(C)n2c1noc2=O` (stereo unspecified) returned a concentration giving a half-maximal response (EC50) in the test listed under Cavia porcellus [1] of 1540 nM. The values for the Decrease in the test listed under Cavia porcellus [2], in the test filed under Cavia porcellus [3] and in the test filed under Cavia porcellus [4] were 62%, 14% and 22%, respectively.
`CCCCCCCCCO[C@@]1(c2ccc(Br)cc2)SC=C(C)n2c1noc2=O`: a half-maximal effect in the test listed under Cavia porcellus [1] (EC50) was put at 350 nM. Moreover, the Decrease was determined as 71% in the test listed under Cavia porcellus [2], 3% in the test listed under Cavia porcellus [3] and 7% in the test listed under Cavia porcellus [4].
On to `CCCCCCOC1(c2ccc(Cl)cc2)SC=C(C)n2c1noc2=O` (stereo unspecified), for which, in the test listed under Cavia porcellus [1], the response was half-maximal at 640 nM (EC50). The Decrease in the test filed under Cavia porcellus [2] was found to be 68%; in the test filed under Cavia porcellus [3], 3%; in the test filed under Cavia porcellus [4] it was 10%.
The compound `CCCCCCCC/C=C\CCCCCCCCO[C@@]1(c2ccc(Cl)cc2)SC=C(C)n2c1noc2=O` registered an EC50 in the test listed under Cavia porcellus [1] of 870 nM. The Decrease in the test listed under Cavia porcellus [2] is 70%; in the test listed under Cavia porcellus [3] it was 7%; in the test listed under Cavia porcellus [4] it was 14%.
As to `CC1=CS[C@@](OCC2CCCCC2)(c2ccc(Cl)cc2)c2noc(=O)n21`, the EC50 in the test listed under Cavia porcellus [1] came to 240 nM. Also, the Decrease in the test listed under Cavia porcellus [2] is recorded as 55%; in the test listed under Cavia porcellus [3], 5%; in the test filed under Cavia porcellus [4], 5%.
For the compound `CC/C=C/COC1(c2ccc(Cl)cc2)SC=C(C)n2c1noc2=O` (stereo unspecified), the Decrease in the test listed under Cavia porcellus [2] worked out at 46%; in the test filed under Cavia porcellus [3] it was 10%; in the test listed under Cavia porcellus [4] it was 8%.
Take `CCO[C@@]1(c2ccc(Cl)cc2)SC=C(C)n2c1noc2=O`: in the test listed under Cavia porcellus [1], the EC50 turned out to be 270 nM. Further, the Decrease was determined as 53% in the test listed under Cavia porcellus [2], 28% in the test filed under Cavia porcellus [3] and 16% in the test listed under Cavia porcellus [4].
In the test listed under Cavia porcellus [1], `CCCCCCCCCCCCO[C@@]1(c2ccc(Br)cc2)SC=C(C)n2c1noc2=O` yielded an EC50 of 130 nM. Also, the Decrease came to 59% in the test filed under Cavia porcellus [6], 3% in the test listed under Cavia porcellus [3] and 16% in the test listed under Cavia porcellus [4].
As for `C=CCOC1(c2ccc(Br)cc2)SC=C(C)n2c1noc2=O` (stereo unspecified), the concentration for a half-maximal effect (EC50) in the test listed under Cavia porcellus [1] is 550 nM. The figures for the Decrease in the test listed under Cavia porcellus [2], in the test filed under Cavia porcellus [3] and in the test listed under Cavia porcellus [4] were 91%, 13% and 13%, respectively.
In the test listed under Cavia porcellus [1], `CC1=CS[C@@](OCC2CCCCC2)(c2ccc(Br)cc2)c2noc(=O)n21` displayed an EC50 of 190 nM. Besides, the Decrease was 78% in the test filed under Cavia porcellus [2], 3% in the test listed under Cavia porcellus [3] and 8% in the test filed under Cavia porcellus [4].
`CCCCCCCC/C=C\CCCCCCCCO[C@@]1(c2ccc(Br)cc2)SC=C(C)n2c1noc2=O`: a half-maximal effect in the test filed under Cavia porcellus [1] (EC50) was put at 1260 nM. Further, the Decrease in the test listed under Cavia porcellus [2] came out at 84%; in the test filed under Cavia porcellus [3] it was 2%; in the test listed under Cavia porcellus [4], 9%.
Taken in the same sequence, the figures for `CC1=CSC(OCc2ccccc2)(c2ccc(Cl)cc2)c2noc(=O)n21` (stereo unspecified) were 740 nM, 63%, 4% and 5%.
As to `CC1=CS[C@@](O)(c2ccc(Cl)cc2)c2noc(=O)n21`, in the test filed under Cavia porcellus [1], the midpoint of the response, the EC50, lay at 800 nM. Further, the values for the Decrease in the test listed under Cavia porcellus [6], in the test listed under Cavia porcellus [3] and in the test listed under Cavia porcellus [4] were 80%, 26% and 18%, respectively.
`CCCCCOC1(c2ccc(Br)cc2)SC=C(C)n2c1noc2=O` (stereo unspecified): the Decrease in the test listed under Cavia porcellus [2] amounted to 34%; in the test listed under Cavia porcellus [3], 3%; in the test filed under Cavia porcellus [4] it was 2%.
